Source: patent US20230416203A1, “POTENT AND SELECTIVE INHIBITORS OF THE CALCIUM-ACTIVATED POTASSIUM CHANNEL, KCA3.1, FOR USE AS PLATFORM THERAPEUTICS” (priority 2020, published 2023)

Assay: Two-week non-GLP toxicology in mice (clinical signs, body weight, body weight gain, food consumption, hematology, clinical chemistry, organ weights, histopathology)
[1] = 25 and 50 mg/kg BID, 2 weeks, mice
[2] = G2 25 mg/kg/BID oral, Treatment Day 1
[3] = G2 25 mg/kg/BID oral, Treatment Day 4
[4] = G2 25 mg/kg/BID oral, Treatment Day 8
[5] = G2 25 mg/kg/BID oral, Treatment Day 11
[6] = G2 25 mg/kg/BID oral, Treatment Day 14
[7] = G3 50 mg/kg/BID oral, Treatment Day 1
[8] = G3 50 mg/kg/BID oral, Treatment Day 4
[9] = G3 50 mg/kg/BID oral, Treatment Day 8
[10] = G3 50 mg/kg/BID oral, Treatment Day 11
[11] = G3 50 mg/kg/BID oral, Treatment Day 14
[12] = female mice, 25 mg/kg ROD oral, 2 weeks, mean
[13] = female mice, 25 mg/kg/BID oral, 2 weeks, mean
[14] = female mice, 50 mg/kg/BID oral, 2 weeks, mean

Procedure: Each group contained 6 mice. The animals were analyzed throughout the study, and blood and tissues were analyzed at the end of the study.

With `COC(=O)C1=CNC=C(C(=O)OC)C1c1ccc(F)c(C(F)(F)F)c1` [Compound 103, Dimethyl 4-(4-fluoro-3-(trifluoromethyl)phenyl)-1,4-dihydropyridine-3,5-dicarboxylate] the “decrease in white blood cells (WBC)” value (25 mg/kg and 50 mg/kg treated male and female mice, statistically significant) was “up to 3.4 fold”, the “Hematological assessment, other parameters” value [1] was “No other toxicologically significant changes were detected” and the Histopathology analysis [1] was “did not detect any differences with controls”. The Organ weights [1] was “not altered”, the gross pathology [1] was “no obvious gross pathology” and the “Body weight of female mice, Mean” value [2] was 20.33. For the same compound, the “Body weight of male mice, Mean” value [2] was 18.30, the “Body weight of female mice, Mean” value [3] was 21.03 and the “Body weight of male mice, Mean” value [3] was 17.65. For the same compound, the “Body weight of female mice, Mean” value [4] was 21.48, the “Body weight of male mice, Mean” value [4] was 19.12 and the “Body weight of female mice, Mean” value [5] was 21.52. For the same compound, the “Body weight of male mice, Mean” value [5] was 18.95, the “Body weight of female mice, Mean” value [6] was 21.93 and the “Body weight of male mice, Mean” value [6] was 19.27. For the same compound, the “Body weight of female mice, Mean” value [7] was 20.47, the “Body weight of male mice, Mean” value [7] was 18.75 and the “Body weight of female mice, Mean” value [8] was 20.37. The “Body weight of male mice, Mean” value [8] was 18.63, the “Body weight of female mice, Mean” value [9] was 21.13 and the “Body weight of male mice, Mean” value [9] was 19.52. For the same compound, the “Body weight of female mice, Mean” value [10] was 21.20, the “Body weight of male mice, Mean” value [10] was 19.32 and the “Body weight of female mice, Mean” value [11] was 21.73. For the same compound, the “Body weight of male mice, Mean” value [11] was 19.85, the “Organ weights relative to body weight (%), Adrenals” value [12] was 0.038% and the “Organ weights relative to body weight (%), Brain” value [12] was 2.217%. The “Organ weights relative to body weight (%), Heart” value [12] was 0.990%, the “Organ weights relative to body weight (%), Kidneys” value [12] was 1.379% and the “Organ weights relative to body weight (%), Liver” value [12] was 6.436%. The “Organ weights relative to body weight (%), Ovaries” value [12] was 0.077%, the “Organ weights relative to body weight (%), Spleen” value [12] was 0.672*↑ % and the “Organ weights relative to body weight (%), Thymus” value [12] was 0.200%. For the same compound, the “Organ weights relative to body weight (%), U” value [12] was 0.321%, the ALB [13] was 2.60*↓ g/dL and the ALT [13] was 40.03 U/L. The AST [13] was 84.12 U/L, the BUN [13] was 19.24 mg/dL and the Basophils [13] was 0.00. The CREA [13] was 0.13 mg/dL, the Eosinophils [13] was 0.00 and the GLU [13] was 153.02 mg/dL. It also gave an HCT [13] of 28.87%, an HGB [13] of 12.97 g/dL and an LDLC [13] of 9.31 mg/dL. For the same compound, the Lympthocytes [13] was 82.00, the MCH [13] was 21.10*↓ pg and the MCHC [13] was 44.93*↓ g/dL. For the same compound, the MCV [13] was 46.97*↑ fL, the Monocytes [13] was 1.00 and the Neutrophils [13] was 17.00. The PLT [13] was 616.67 10^3/μl, the RBC [13] was 6.15 and the “Reticuloxyte Count” value [13] was 2.63. It also gave a TBIL [13] of 0.12 mg/dL, a TGL [13] of 48.73 mg/dL and a TP [13] of 4.12 g/dL. The Urea [13] was 41.23 mg/dL, the WBC [13] was 3.73*↓ 10^3/μl and the “Food consumption, Average Feed Intake/Animal” value (female mice, 25 mg/kg/BID oral, treatment day 1 to 4) was 9.4 g/animal. For the same compound, the “Body weight gain (%)” value (female mice, 25 mg/kg/BID oral, treatment day 1 to 4, mean) was −3.53%, the “Food consumption, Average Feed Intake/Animal” value (female mice, 25 mg/kg/BID oral, treatment day 1 to 8) was 12.8 g/animal and the “Body weight gain (%)” value (female mice, 25 mg/kg/BID oral, treatment day 1 to 8, mean) was 4.49%. The “Food consumption, Average Feed Intake/Animal” value (female mice, 25 mg/kg/BID oral, treatment day 1 to 11) was 10.3 g/animal, the “Body weight gain (%)” value (female mice, 25 mg/kg/BID oral, treatment day 1 to 11, mean) was 3.54% and the “Food consumption, Average Feed Intake/Animal” value (female mice, 25 mg/kg/BID oral, treatment day 1 to 14) was 9.5 g/animal. For the same compound, the “Body weight gain (%)” value (female mice, 25 mg/kg/BID oral, treatment day 1 to 14, mean) was 5.27%, the ALB [14] was 2.55*↓ g/dL and the ALP [14] was 254.38 U/L. It also gave an ALT [14] of 55.57 U/L, an AST [14] of 92.78 U/L and a BUN [14] of 22.71 mg/dL. For the same compound, the Basophils [14] was 0.00, the CREA [14] was 0.12 mg/dL and the Eosinophils [14] was 0.00. It also gave a GLU [14] of 165.87 mg/dL, an HCT [14] of 28.73% and an HGB [14] of 13.67 g/dL. It also gave an LDLC [14] of 8.23 mg/dL, a Lympthocytes [14] of 84.00 and an MCH [14] of 21.23 pg. For the same compound, the MCHC [14] was 45.37*↓ g/dL, the MCV [14] was 46.83*↑ fL and the Monocytes [14] was 1.33. The Neutrophils [14] was 14.67, the PLT [14] was 733.00 10^3/μl and the RBC [14] was 6.14. The “Reticuloxyte Count” value [14] was 2.67, the TBIL [14] was 0.14 mg/dL and the TGL [14] was 59.97 mg/dL. For the same compound, the TP [14] was 3.89 g/dL, the Urea [14] was 48.65 mg/dL and the WBC [14] was 2.17*↓ 10^3/μl. For the same compound, the “Food consumption, Average Feed Intake/Animal” value (female mice, 50 mg/kg/BID oral, treatment day 1 to 4) was 9.1 g/animal, the “Body weight gain (%)” value (female mice, 50 mg/kg/BID oral, treatment day 1 to 4, mean) was −0.68% and the “Food consumption, Average Feed Intake/Animal” value (female mice, 50 mg/kg/BID oral, treatment day 1 to 8) was 12.8 g/animal. The “Body weight gain (%)” value (female mice, 50 mg/kg/BID oral, treatment day 1 to 8, mean) was 4.10%, the “Food consumption, Average Feed Intake/Animal” value (female mice, 50 mg/kg/BID oral, treatment day 1 to 11) was 8.7 g/animal and the “Body weight gain (%)” value (female mice, 50 mg/kg/BID oral, treatment day 1 to 11, mean) was 3.03%. The “Food consumption, Average Feed Intake/Animal” value (female mice, 50 mg/kg/BID oral, treatment day 1 to 14) was 9.8 g/animal.
